Measurements from PubChem BioAssay AID1645863 (Buhrlage Lab, Dana-Farber Cancer Institute and Novartis …, 2021).
Calls of active or inactive are those of the source. The rule behind the calls is not given here.

These compounds were tested against Ubiquitin carboxyl-terminal hydrolase 10 (Homo sapiens) (UniProt Q14694) (assay: ubiquitin-specific protease 10 DUB inhibitors, concentration-effect, biochemical, verification of primary screen actives (AID 1645863;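 note: potency values describe inhibition of USP10 cleavage of a fluorogenic ubiquitin substrate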)). Details: USP10 deubiquitinase enzymatic assay.
Sequence of Ubiquitin carboxyl-terminal hydrolase 10 (Homo sapiens) (Q14694 whole entry, looked up): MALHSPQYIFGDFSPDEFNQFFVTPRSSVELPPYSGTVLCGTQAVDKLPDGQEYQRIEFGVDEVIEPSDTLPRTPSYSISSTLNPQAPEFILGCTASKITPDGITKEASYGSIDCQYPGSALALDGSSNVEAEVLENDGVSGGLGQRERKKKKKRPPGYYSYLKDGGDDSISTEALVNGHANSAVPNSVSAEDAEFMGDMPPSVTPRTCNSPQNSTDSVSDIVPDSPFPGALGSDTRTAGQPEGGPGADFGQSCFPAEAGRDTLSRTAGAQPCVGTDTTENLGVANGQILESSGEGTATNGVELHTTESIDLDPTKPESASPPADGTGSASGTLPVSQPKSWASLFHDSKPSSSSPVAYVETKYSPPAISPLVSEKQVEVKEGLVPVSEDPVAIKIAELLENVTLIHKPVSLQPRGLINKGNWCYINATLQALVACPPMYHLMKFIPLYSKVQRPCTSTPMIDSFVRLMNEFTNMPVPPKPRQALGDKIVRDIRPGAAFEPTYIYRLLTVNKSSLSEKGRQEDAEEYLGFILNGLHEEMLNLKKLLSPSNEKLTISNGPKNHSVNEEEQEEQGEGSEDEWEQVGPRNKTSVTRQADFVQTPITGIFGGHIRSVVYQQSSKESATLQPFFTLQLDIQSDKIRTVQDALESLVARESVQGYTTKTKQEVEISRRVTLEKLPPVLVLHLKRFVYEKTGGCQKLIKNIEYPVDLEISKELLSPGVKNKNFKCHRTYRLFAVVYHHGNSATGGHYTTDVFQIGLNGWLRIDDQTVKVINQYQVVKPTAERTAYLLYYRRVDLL

Structure (SMILES)	IC50
COc1ccc(CNC(=O)Cn2c(=O)[nH]c3c(-c4ccccc4F)c[nH]c3c2=O)cc1	> 40 µM (inactive)
CCN(Cc1ccccc1)C(=O)C1CCN(Cc2ccc(OC)c(OC)c2OC)CC1	> 40 µM (inactive)
CCc1[nH]c(=O)cc2cc(OC)c(OC)cc12	2.97 µM
Cc1csc(NC(=O)c2c[nH]c3ccc(F)cc3c2=O)n1	> 40 µM (inactive)
Cc1ccc(-c2nc(NC(=O)COc3ccc(Cl)cc3)no2)cc1	13.5 µM
COc1ccc(C)cc1NC(=O)C1CC(=O)Nc2nc3ccccc3n21 (stereo not drawn)	28.1 µM
CSc1nc2ncn(CC(=O)Nc3ccc(Br)cc3)c(=O)c2s1	> 40 µM (inactive)
CCN(CC)C(=O)c1sc(NC(=O)c2cc(-c3ccccc3Cl)nc3ccccc23)c(C(N)=O)c1C	> 40 µM (inactive)
O=C(Cn1cnc(-c2noc(-c3ccc(F)cc3)n2)c1)Nc1ccccc1F	> 40 µM (inactive)
O=c1c2[nH]c3ccccc3c2ncn1CCC1=CCCCC1	> 40 µM (inactive)
O=C(Cn1cc(C(=O)c2ccccc2)c(=O)c2cc(F)ccc21)Nc1ccc2c(c1)OCCO2	> 40 µM (inactive)
CCn1c(SCC(=O)c2c(N)n(CC(C)C)c(=O)n(C)c2=O)nnc1-c1ccccc1	> 40 µM (inactive)
CC(=O)Nc1ccc(S(=O)(=O)NCc2ccc(C(=O)NCCc3ccc(Cl)cc3)cc2)cc1	> 40 µM (inactive)
CCOc1ccc2c(c1)c(=O)c(C(=O)c1ccc(F)cc1)cn2CC(=O)Nc1ccccc1	> 40 µM (inactive)
O=C1NC(=O)/C(=C/c2ccc(OC(=O)c3ccc(Cl)cc3Cl)cc2)N1	22.1 µM
O=C(Cn1c(=O)[nH]c2ccccc2c1=O)NCc1ccccc1Cl	> 40 µM (inactive)
CCc1noc(-c2ccn3c(CC(=O)Nc4ccccc4C)nnc3c2)n1	8 µM
Cc1ccc(Nc2nc(O)c(CC(=O)Nc3ccc(C)cc3C)s2)cc1	14.6 µM
Nc1c(C(=O)NCc2ccc3c(c2)OCO3)nnn1Cc1ccc(Br)cc1F	18.4 µM
CC(=O)N1CCc2cc(S(=O)(=O)NC(Cc3ccccc3)C(=O)Nc3cccc(Cl)c3C)ccc21 (stereo not drawn)	23.8 µM
O=c1[nH]c2ccc(S(=O)(=O)Nc3ccc(O)c4ccccc34)cc2[nH]1	39 µM
Cc1cccc(N2CCN(C(=O)c3nc4cccnc4n(C)c3=O)CC2)c1C	> 40 µM (inactive)
Cc1ccc(C(=O)O)cc1NC(=O)C(Sc1cccc(NC(=O)c2ccccc2C)c1)c1ccccc1 (stereo not drawn)	> 40 µM (inactive)

Structure (SMILES)	IC50
Cc1ccc(NC(=O)Cn2c(=O)n(CC(=O)NCCc3ccccc3)c(=O)c3sccc32)cc1C	21 µM
COc1ccc(NC(=O)Cn2cc(C(=O)c3ccc(C)cc3)c(=O)c3ccccc32)cc1	30.1 µM
CCCN1CCN(C(=O)Cn2c(C)ccc(NC(=O)c3ccccc3)c2=O)CC1	> 40 µM (inactive)
FC(F)(F)c1ccc(Nc2nnnc3ccccc23)cc1	16.6 µM
CCCCCCC1CCC(O)CC(O)CC(O)CC(O)CC(O)CC(O)/C(C)=C/C=C\C=C/C=C/C=C/[C@H](O)[C@@H](C)OC1=O (stereo partly drawn)	> 40 µM (inactive)
Cc1cccc(NC(=O)CNC(=O)c2ccc(-c3noc(C4CCCC4)n3)cc2)c1C	> 40 µM (inactive)
CCOC(=O)C1CCN(Cc2cc(=O)oc3cc(O)c(O)cc23)CC1	1.68 µM
Fc1cccc(Nc2ncnc3c2oc2ccccc23)c1	> 40 µM (inactive)
COC(=O)c1ccc2c(=O)n(CCCCCC(=O)NCCc3ccc(OC)c(OC)c3)c(=O)[nH]c2c1	> 40 µM (inactive)
NC(=O)C1(N2CCCCC2)CCN(c2ncc3c(=O)n(-c4ccccc4)c(=O)[nH]c3n2)CC1	> 40 µM (inactive)
O=C(NC1CCCC1)c1ccc(Cn2c(=O)c3ccccc3n(Cc3cc(=O)n4ccccc4n3)c2=O)cc1	> 40 µM (inactive)
O=C(NC(Cc1ccccc1)c1nc2ccccc2[nH]1)C1CC1 (stereo not drawn)	> 40 µM (inactive)
N#C/C(=C\c1ccc(OCc2cccc(C(=O)O)c2)cc1)c1ccc(F)cc1	20.2 µM
O=C(CSc1nnc2c3ccccc3nc(-c3ccco3)n12)N1CCCc2ccccc21	3.82 µM
CCCc1cc(=O)n2[nH]c(COc3ccccc3)c(-c3ccccc3)c2n1	14 µM
CCCn1c(=O)c(-c2ccc(C(=O)NCc3ccc(OC)cc3)cc2)nc2cccnc21	> 40 µM (inactive)
O=C(Cn1c(=O)c2ccccc2c2ccccc21)Nc1ccc2c(c1)OCO2	34.9 µM
Cc1cc(Nc2cccc(Cl)c2)n2nc(-c3cccnc3)nc2n1	> 40 µM (inactive)
Cc1cccc(NC(=O)CSc2nc3c(cc2C#N)C(=O)CCC3)c1	26.4 µM
COCCCN1CCS(=O)(=O)c2c(Cl)c(F)nc(Oc3ccc(C#N)cc3)c21	> 40 µM (inactive)
NS(=O)(=O)c1ccc(CNC(=O)c2ccc(Cl)c(S(=O)(=O)Nc3cc(Cl)ccc3Cl)c2)cc1	26.4 µM
O=C(Nc1ccc(F)cc1)Nc1ccccc1OCc1cc(=O)n2ccccc2n1	26.3 µM
CC(C)[C@H]1CC[C@@]2(CO2)[C@H]2C(=O)OCC(C(=O)O)=C[C@H]12	21.7 µM

Structure (SMILES)	IC50
Cn1nc(C(=O)N2CCC(c3ccccc3)C2)c2c1-c1ccsc1CC2 (stereo not drawn)	> 40 µM (inactive)
O=C(CSc1nnc2ccc3ccccc3n12)c1ccc(Cl)cc1	> 40 µM (inactive)
COc1ccc(-c2nc(-c3nnn(Cc4ccc(F)cc4)c3C)no2)c(OC)c1	> 40 µM (inactive)
COc1cn(-c2ccc(F)cc2)nc1C(=O)Nc1ccc(Cl)cc1Cl	16.2 µM
CCCc1nnc(NC(=O)c2cc(-c3ccccc3O)n[nH]2)s1	> 40 µM (inactive)
O=S(=O)(c1ccccc1Cl)N1CCN(c2ccc3nnc(-c4ccco4)n3n2)CC1	> 40 µM (inactive)
CC1(C(=O)NCc2ccc(F)cc2)Cn2nc(-c3ccco3)cc2C(=O)N1c1ccc2c(c1)OCCO2 (stereo not drawn)	> 40 µM (inactive)
COc1ccc(S(=O)(=O)N2CCc3ccccc32)cc1C(=O)Nc1ccc2[nH]c(=O)[nH]c2c1	24.2 µM
Cc1ccccc1NC(=O)Cc1csc2nc(-c3ccc(F)cc3)cn12	> 40 µM (inactive)
O=C(Nc1ccccc1-c1nc(-c2ccccn2)no1)c1cc(Cl)ccc1Cl	> 40 µM (inactive)
O=C(Nc1cccnc1)C1c2ccccc2C(=O)N(c2ccccc2)C12CCCCC2 (stereo not drawn)	> 40 µM (inactive)
COc1ccc(NS(=O)(=O)c2cc(NC(=O)CC(=O)c3ccc([N+](=O)[O-])cc3)ccc2C)cc1	> 40 µM (inactive)
COc1cccc2c1NC(=O)C21CCN(C(=O)Nc2cccc3ccccc23)CC1	> 40 µM (inactive)
CNc1ccc(-c2noc([C@@H]3CCCN3Cc3cccc(C#N)c3)n2)cn1	> 40 µM (inactive)
Cn1c(=O)c2ncnnc2n(C)c1=O	3.09 µM
COCCCNC(=O)c1ccc(Cn2c(=O)c3ccccc3n(CC(=O)Nc3ccc4c(c3)OCCO4)c2=O)cc1	> 40 µM (inactive)
Cc1ccc(NC(=O)Cc2nnc3cc(-c4nc(C)no4)ccn23)cc1	14.3 µM
O=C(Nc1cccc(F)c1)Nc1cccc(-c2nnc(-c3ccccc3)o2)c1	18.2 µM
COc1ccc(-c2cc(C(=O)Nc3ccnn3Cc3ccccc3)no2)cc1	> 40 µM (inactive)
O=C(COc1nc2ccccc2nc1N1CCOCC1)NC(c1ccccc1)c1ccccc1	> 40 µM (inactive)
O=C(Nc1nc2c(ccc3ccccc32)s1)c1cccc(Br)c1	> 40 µM (inactive)
O=C(Cn1c(=O)n(CC2CCC(C(=O)NC3CCCC3)CC2)c(=O)c2ccccc21)NCCC1=CCCCC1 (stereo not drawn)	> 40 µM (inactive)
